Among the data in US11739070B2, “C5A receptor modulators” (IDORSIA PHARMACEUTICALS LTD, priority 2018, dated 2023) are IC50 values, retold here.

In the experiment the target is T1, C5AR1 (Homo sapiens, UniProt P21730).
T1 construct: host or cells: CHO-K1
T1 sequence (P21730 1-350): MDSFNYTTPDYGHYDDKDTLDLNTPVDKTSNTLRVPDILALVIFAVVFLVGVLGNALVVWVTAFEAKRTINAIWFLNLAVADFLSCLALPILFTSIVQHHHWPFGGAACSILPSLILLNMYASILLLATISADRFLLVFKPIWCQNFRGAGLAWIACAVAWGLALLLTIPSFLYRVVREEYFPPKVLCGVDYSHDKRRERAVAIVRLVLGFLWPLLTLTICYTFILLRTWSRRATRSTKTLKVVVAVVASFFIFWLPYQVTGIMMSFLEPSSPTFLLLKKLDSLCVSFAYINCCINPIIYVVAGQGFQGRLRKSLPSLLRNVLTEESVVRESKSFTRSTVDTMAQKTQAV
Description: hC5a DISCO IC50 assay (PathHunter beta-arrestin, antagonist mode). It counts as cell-based. Particulars: CHO-K1 C5AR1 beta-arrestin cell line; antagonist vs 1-10 nM C5a agonist; geometric mean values; read-out: C5aR IC50. The essentials:
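Antagonist added first, then 1-10 nM C5a agonist; cells incubated 1.5 h at 37 °C. Beta-arrestin signal developed with PathHunter detection reagent, 45 min at RT. IC50 in nmol/l from serial antagonist dilutions, reported as geometric mean of several measurements.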

One may read the IC50 as the midpoint of a concentration-inhibition curve. `COc1cccc2c1n(Cc1ccccc1C(F)(F)F)c(=O)n2[C@@H]1CCN(c2c(F)cccc2CCN2CCOCC2)C1` [Example 131, 1-{(R)-1-[2-Fluoro-6-(2-morpholin-4-yl-ethyl)-phenyl]-pyrrolidin-3-yl}-4-methoxy-3-(2-trifluoromethyl-benzyl)-1,3-dihydro-benzoimidazol-2-one]: the concentration for half-maximal inhibition (IC50) is 53 nM. As to `Cc1cccc(F)c1N1CC[C@@H](n2c(=O)n(Cc3ccccc3C(F)(F)F)c3c(OCCO)cccc32)C1` [Example 150, 1-[(R)-1-(2-Fluoro-6-methyl-phenyl)-pyrrolidin-3-yl]-4-(2-hydroxy-ethoxy)-3-(2-trifluoromethyl-benzyl)-1,3-dihydro-benzoimidazol-2-one], the IC50 was determined as 11 nM. As for `COc1cccc2c1n(Cc1ccccc1C(F)(F)F)c(=O)n2[C@@H]1CCN(c2c(F)cccc2CO)C1` [Example 88, 1-[(R)-1-(2-Fluoro-6-hydroxymethyl-phenyl)-pyrrolidin-3-yl]-4-methoxy-3-(2-trifluoromethyl-benzyl)-1,3-dihydro-benzoimidazol-2-one], the half-inhibitory concentration (IC50) was 39 nM.

For `COc1ccccc1Cn1c(=O)n([C@@H]2CCN(c3c(C)cccc3C)C2)c2cccc(OC)c21` [Example 67, 1-[(R)-1-(2,6-Dimethyl-phenyl)-pyrrolidin-3-yl]-4-methoxy-3-(2-methoxy-benzyl)-1,3-dihydro-benzoimidazol-2-one], the half-inhibitory concentration (IC50) came to 36 nM. Next, `CNCc1cccc(F)c1N1CC[C@@H](n2c(=O)n(Cc3ccccc3C(F)(F)F)c3c(OC)cccc32)C1` [Example 103, 1-[(R)-1-(2-Fluoro-6-methylaminomethyl-phenyl)-pyrrolidin-3-yl]-4-methoxy-3-(2-trifluoromethyl-benzyl)-1,3-dihydro-benzoimidazol-2-one]: 669 nM; `COc1cccc2c1n(Cc1ccccc1C(F)(F)F)c(=O)n2C1CCN(c2ccccc2OCc2ccccc2)CC1` [Example 231, 1-[1-(2-Benzyloxy-phenyl)-piperidin-4-yl]-4-methoxy-3-(2-trifluoromethyl-benzyl)-1,3-dihydro-benzoimidazol-2-one]: 66 nM.

Turning to `COc1cccc2c1n(Cc1ccccc1C(F)(F)F)c(=O)n2[C@@H]1CCN(c2c(F)cccc2CN2CCN(C)CC2)C1` [Example 132, 1-{(R)-1-[2-Fluoro-6-(4-methyl-piperazin-1-ylmethyl)-phenyl]-pyrrolidin-3-yl}-4-methoxy-3-(2-trifluoromethyl-benzyl)-1,3-dihydro-benzoimidazol-2-one], the 50% inhibitory concentration (IC50) was 314 nM. Next, `[2H]c1ccc(OC)c2c1n(C1CCN(c3c(C)cccc3C)CC1)c(=O)n2Cc1ccccc1C(F)(F)F` [Example 3, 1-(1-(2,6-dimethylphenyl)piperidin-4-yl)-4-methoxy-3-(2-(trifluoromethyl)benzyl)-1,3-dihydro-benzoimidazol-2-one-7-d]: 23 nM; `COCCNc1nccc2c1n(Cc1ccccc1C(F)(F)F)c(=O)n2[C@@H]1CCN(c2c(C)cccc2F)C1` [Example 207, 1-[(R)-1-(2-Fluoro-6-methyl-phenyl)-pyrrolidin-3-yl]-4-(2-methoxy-ethylamino)-3-(2-trifluoromethyl-benzyl)-1,3-dihydro-imidazo[4,5-c]pyridin-2-one]: 508 nM; `COc1cccc2c1n(Cc1ccccc1C(F)(F)F)c(=O)n2C1CCN(c2c(C)c(C3CC3)nn2C)CC1` [Example 25, 1-[1-(5-Cyclopropyl-2,4-dimethyl-2H-pyrazol-3-yl)-piperidin-4-yl]-4-methoxy-3-(2-trifluoromethyl-benzyl)-1,3-dihydro-benzoimidazol-2-one]: 185 nM. For `Cc1cccc(F)c1N1CC[C@@H](n2c(=O)n(Cc3ccccc3C(F)(F)F)c3c(O)cccc32)C1` [Example 40, 1-[(R)-1-(2-Fluoro-6-methyl-phenyl)-pyrrolidin-3-yl]-4-hydroxy-3-(2-trifluoromethyl-benzyl)-1,3-dihydro-benzoimidazol-2-one], the concentration for half-maximal inhibition (IC50) is 6 nM. On to `COc1cccc2c1n(Cc1ccncc1C(F)(F)F)c(=O)n2C1CCN(c2c(F)cccc2F)CC1` [Example 74, 1-[1-(2,6-Difluoro-phenyl)-piperidin-4-yl]-4-methoxy-3-(3-trifluoromethyl-pyridin-4-ylmethyl)-1,3-dihydro-benzoimidazol-2-one], for which the IC50 came to 1330 nM. `COc1cccc2c1n(Cc1ccccc1C(F)(F)F)c(=O)n2C1CCCN(c2c(C)cccc2F)CC1` (centres unmarked) [Example 184, 1-[1-(2-Fluoro-6-methyl-phenyl)-azepan-4-yl]-4-methoxy-3-(2-trifluoromethyl-benzyl)-1,3-dihydro-benzoimidazol-2-one]: the half-inhibitory concentration (IC50) turned out to be 36 nM. With `COc1ccccc1Cn1c(=O)n([C@@H]2CCN(c3c(C)cccc3F)C2)c2cccc(OC)c21` [Example 110, 1-[(R)-1-(2-Fluoro-6-methyl-phenyl)-pyrrolidin-3-yl]-4-methoxy-3-(2-methoxy-benzyl)-1,3-dihydro-benzoimidazol-2-one], the half-maximal inhibitory concentration (IC50) was determined as 6 nM. For `COc1cccc2c1n(Cc1ccccc1C(F)(F)F)c(=O)n2[C@@H]1CCN(c2c(F)cccc2C#CCN2CCOCC2)C1` [Example 159, 1-{(R)-1-[2-Fluoro-6-(3-morpholin-4-yl-prop-1-ynyl)-phenyl]-pyrrolidin-3-yl}-4-methoxy-3-(2-trifluoromethyl-benzyl)-1,3-dihydro-benzoimidazol-2-one], the half-maximal inhibitory concentration (IC50) was determined as 73 nM. For the compound `COc1cccc2c1n(Cc1ccccc1C(F)(F)F)c(=O)n2[C@@H]1CCN(c2cc(C)nn2C)C1` [Example 79, 1-[(R)-1-(2,5-Dimethyl-2H-pyrazol-3-yl)-pyrrolidin-3-yl]-4-methoxy-3-(2-trifluoromethyl-benzyl)-1,3-dihydro-benzoimidazol-2-one], the half-maximal inhibitory concentration (IC50) turned out to be 911 nM. For the compound `COc1ncnc(OC)c1N1CCC(n2c(=O)n(Cc3ccccc3C(F)(F)F)c3c(OC)cccc32)CC1` [Example 250, 1-[1-(4,6-Dimethoxy-pyrimidin-5-yl)-piperidin-4-yl]-4-methoxy-3-(2-trifluoromethyl-benzyl)-1,3-dihydro-benzoimidazol-2-one], the half-maximal inhibitory concentration (IC50) came to 853 nM.

`COc1cccc2c1n(Cc1ccccc1C(F)(F)F)c(=O)n2[C@@H]1CCN(c2c(F)cccc2C(C)N2CC(OC)C2)C1` (stereo partly drawn) [Example 163, 1-((R)-1-{2-Fluoro-6-[1-(3-methoxy-azetidin-1-yl)-ethyl]-phenyl}-pyrrolidin-3-yl)-4-methoxy-3-(2-trifluoromethyl-benzyl)-1,3-dihydro-benzoimidazol-2-one]: the concentration for half-maximal inhibition (IC50) amounted to 591 nM. `COc1ccccc1Cn1c(=O)n([C@@H]2CCN(c3c(F)cccc3C#N)C2)c2cccc(OC)c21` [Example 109, 3-Fluoro-2-{(R)-3-[4-methoxy-3-(2-methoxy-benzyl)-2-oxo-2,3-dihydro-benzoimidazol-1-yl]-pyrrolidin-1-yl}-benzonitrile]: the IC50 is 61 nM. Consider `COc1cccc2c1n(Cc1ccccc1C(F)(F)F)c(=O)n2[C@H]1CN(C(=O)OC(C)(C)C)C[C@@H]1C` (relative stereo) [Example 196, (3R*,4S*)-3-[4-Methoxy-2-oxo-3-(2-trifluoromethyl-benzyl)-2,3-dihydro-benzoimidazol-1-yl]-4-methyl-pyrrolidine-1-carboxylic acid tert-butyl ester], for which the IC50 came out at 139 nM. Turning to `COc1ccnnc1Cn1c(=O)n([C@@H]2CCN(c3c(C)cccc3F)C2)c2cccc(OC)c21` [Example 95, 1-[(R)-1-(2-Fluoro-6-methyl-phenyl)-pyrrolidin-3-yl]-4-methoxy-3-(4-methoxy-pyridazin-3-ylmethyl)-1,3-dihydro-benzoimidazol-2-one], the IC50 was 191 nM. Regarding `Cc1cccc(F)c1N1CC[C@@H](n2c(=O)n(Cc3ccccc3C(F)(F)F)c3c(OCCN4CCOCC4)nccc32)C1` [Example 121, 1-[(R)-1-(2-Fluoro-6-methyl-phenyl)-pyrrolidin-3-yl]-4-(2-morpholin-4-yl-ethoxy)-3-(2-trifluoromethyl-benzyl)-1,3-dihydro-imidazo[4,5-c]pyridin-2-one], the IC50 was determined as 270 nM. With `COc1nccc(C)c1N1CC[C@@H](n2c(=O)n(Cc3ccccc3C(F)(F)F)c3c(OC)cccc32)C1` [Example 33, 4-Methoxy-1-[(R)-1-(2-methoxy-4-methyl-pyridin-3-yl)-pyrrolidin-3-yl]-3-(2-trifluoromethyl-benzyl)-1,3-dihydro-benzoimidazol-2-one], the half-inhibitory concentration (IC50) amounted to 8 nM. In the case of `COc1cccc2c1n(Cc1ccccc1C(F)(F)F)c(=O)n2[C@@H]1CCN(C(=O)OC(C)C)C1` [Example 61, (R)-3-[4-Methoxy-2-oxo-3-(2-trifluoromethyl-benzyl)-2,3-dihydro-benzoimidazol-1-yl]-pyrrolidine-1-carboxylic acid isopropyl ester], the IC50 turned out to be 65 nM. Take `COc1cccc2c1n(Cc1ccccc1C(F)(F)F)c(=O)n2C1CCN(c2ccccc2OC2CCOCC2)CC1` [Example 239, 4-Methoxy-1-{1-[2-(tetrahydro-pyran-4-yloxy)-phenyl]-piperidin-4-yl}-3-(2-trifluoromethyl-benzyl)-1,3-dihydro-benzoimidazol-2-one]: the concentration for half-maximal inhibition (IC50) is 82 nM. With `COc1cccc2c1n(Cc1ccccc1C(F)(F)F)c(=O)n2[C@@H]1CCN(c2c(F)cccc2CN2CCNCC2)C1` [Example 135, 1-[(R)-1-(2-Fluoro-6-piperazin-1-ylmethyl-phenyl)-pyrrolidin-3-yl]-4-methoxy-3-(2-trifluoromethyl-benzyl)-1,3-dihydro-benzoimidazol-2-one], the half-maximal inhibitory concentration (IC50) was found to be 5760 nM.
